For test [1], the system named is Trypanosoma brucei brucei. The test can be described thus: Antiparasitic activity against Trypanosoma brucei brucei. It counts as functional, organism-based.
Test [2] addresses T1, Procathepsin L (Homo sapiens, UniProt P07711). Briefly: Inhibition of cathepsin L.
Target sequence in this assay (P07711 whole entry): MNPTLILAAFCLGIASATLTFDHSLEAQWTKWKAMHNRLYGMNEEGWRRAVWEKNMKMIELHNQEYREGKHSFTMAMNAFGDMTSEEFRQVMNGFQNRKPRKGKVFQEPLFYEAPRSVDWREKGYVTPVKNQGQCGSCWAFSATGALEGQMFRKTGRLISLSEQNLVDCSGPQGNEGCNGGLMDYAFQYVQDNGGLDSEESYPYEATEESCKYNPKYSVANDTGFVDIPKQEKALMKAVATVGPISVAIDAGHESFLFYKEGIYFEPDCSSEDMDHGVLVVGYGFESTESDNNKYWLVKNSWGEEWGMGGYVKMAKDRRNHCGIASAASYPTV
For the next test, the target named is Rhodesain (Trypanosoma brucei rhodesiense, UniProt Q95PM0). Briefly: Inhibition of Trypanosoma brucei rhodesiense rhodesain.
In test [3] the test system is Plasmodium falciparum. The test can be described thus: Antiparasitic activity against Plasmodium falciparum. In kind it is functional, organism-based.
The subject of test [4] is Plasmodium falciparum. The test can be described thus: Inhibition of Plasmodium falciparum falcipain-2 at 100 uM.
The target of test [5] is T2, Cathepsin B (Homo sapiens, UniProt P07858). The test can be described thus: Inhibition of cathepsin B at 100 uM.
For test [6], the target named is T2, Cathepsin B. The test can be described thus: Inhibition of cathepsin B.
Test [7] addresses T2, Cathepsin B. The note with it: 20 uM.
Description: Inhibition of cathepsin B at 20 uM
Test [8] addresses T1, Procathepsin L. Briefly: Inhibition of cathepsin L at 20 uM.
Target sequence in this assay (P07711 114-333 limits assumed): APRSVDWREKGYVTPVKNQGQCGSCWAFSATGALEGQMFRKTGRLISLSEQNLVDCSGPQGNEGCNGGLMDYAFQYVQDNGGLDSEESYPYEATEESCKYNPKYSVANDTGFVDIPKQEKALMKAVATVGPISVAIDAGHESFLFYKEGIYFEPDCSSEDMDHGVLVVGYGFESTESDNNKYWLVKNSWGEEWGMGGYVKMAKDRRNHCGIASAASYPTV
Test [9] can be described thus: Inhibition of Plasmodium falciparum falcipain-2.
In test [10] the test system is Plasmodium falciparum. The test can be described thus: Inhibition of Plasmodium falciparum falcipain-2 at 20 uM.
Test [11] has as its target Rhodesain (Trypanosoma brucei rhodesiense) (UniProt Q95PM0). Briefly: Inhibition of Trypanosoma brucei rhodesiense rhodesain at 20 uM.
Test [12] has the same target. The test can be described thus: Time dependent inhibition of Trypanosoma brucei rhodesiense rhodesain by Dixon plot analysis.
The subject of test [13] is Plasmodium falciparum. The test can be described thus: Time dependent inhibition of Plasmodium falciparum falcipain-2 by Dixon plot analysis.
Test [14] deals with T1, Procathepsin L. Briefly: Inhibition of cathepsin L at 100 uM.
Target sequence in this assay (P07711 114-333 limits assumed): as above
Test [15] deals with T1, Procathepsin L. Briefly: Time dependent inhibition of cathepsin L by Dixon plot analysis.
Target sequence in this assay (P07711 114-333 limits assumed): as above

Here are results for eight compounds from ChEMBL document CHEMBL1221327, “Allicin and derivates are cysteine protease inhibitors with antiparasitic activity” (Bioorg Med Chem Lett, 2010).

Calls of active or inactive are those of the source. The calls are words filed in the database; no cut-off is given here. A value given as a limit tells only on which side of the number the result lay.

Sequence of Rhodesain (Q95PM0 whole entry): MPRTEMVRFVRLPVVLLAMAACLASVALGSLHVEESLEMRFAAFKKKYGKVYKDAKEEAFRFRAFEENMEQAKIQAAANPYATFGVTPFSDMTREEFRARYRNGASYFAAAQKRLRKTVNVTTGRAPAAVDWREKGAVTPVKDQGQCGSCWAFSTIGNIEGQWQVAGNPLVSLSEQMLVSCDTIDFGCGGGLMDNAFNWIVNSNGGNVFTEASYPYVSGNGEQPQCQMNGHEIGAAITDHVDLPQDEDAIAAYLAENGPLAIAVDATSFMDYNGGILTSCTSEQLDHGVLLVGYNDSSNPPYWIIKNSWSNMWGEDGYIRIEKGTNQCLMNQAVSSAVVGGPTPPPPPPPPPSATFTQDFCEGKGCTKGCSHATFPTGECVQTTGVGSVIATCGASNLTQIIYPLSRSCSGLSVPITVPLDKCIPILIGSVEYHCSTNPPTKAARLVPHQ
Sequence of Rhodesain (Trypanosoma brucei rhodesiense) (Q95PM0 1-450): as the sequence (Q95PM0 whole entry) above

What is called IC50 is the midpoint of a concentration-inhibition curve. A higher IC50 goes with weaker potency. Usually Ki stands for a dissociation constant, usually derived from enzyme kinetics or from competition with a known ligand. On to `CC(C)(C)S[S+]([O-])Cc1ccccc1` (stereo unspecified), for which the half-inhibitory concentration (IC50) in [1] was 11.9 µM; with Plasmodium falciparum [3], 52.9 µM. Moreover, the Ki on Procathepsin L [2] and at Rhodesain was above 100 µM in each case. In addition, the inhibition entry in the test on Plasmodium falciparum [4] and on Cathepsin B [5] was “inactive” throughout.

`C=CCS[S+]([O-])CC=C` (stereo unspecified) [ALLICIN]: the inhibitory constant (Ki) is 8.6 µM on Cathepsin B [6], 9.3 µM on Procathepsin L [2], 5.31 µM on Rhodesain and 1.04 µM in test [9]. For the same compound, the IC50 in test [1] is 13.8 µM; in the test on Plasmodium falciparum [3], 5.21 µM. Besides, the inhibition entry (on Cathepsin B [7]; on Procathepsin L [8]; in the test on Plasmodium falciparum [10]; in test [11]) was “inactive” in each case.

Turning to `[O-][S+](SC1CCCCC1)C1CCCCC1` (stereo unspecified), the Ki (at Cathepsin B [6]; on Procathepsin L [2]; at Rhodesain; in test [9]) was above 100 µM in each case. In addition, in the test on Plasmodium falciparum [3], the IC50 is 34.4 µM.

With `[O-][S+](Cc1ccccc1)SCc1ccccc1` (stereo unspecified), the Ki on Cathepsin B [6] was 7.8 µM; at Procathepsin L [2] it was 31.7 µM; at Rhodesain, 2.31 µM; in test [9], 4.5 µM. The TDI turned out to be 7800 min⁻¹ M⁻¹ in test [12] and 48600 min⁻¹ M⁻¹ in the test on Plasmodium falciparum [13]. In the test with Plasmodium falciparum [3], this compound showed an IC50 of 30.3 µM.

Regarding `CC(C)(C)S[S+]([O-])C(C)(C)C` (stereo unspecified), the IC50 in test [1] was above 40 µM; in the test with Plasmodium falciparum [3] it was 72.5 µM. The Ki (at Rhodesain; in test [9]) was above 100 µM each time. Moreover, the inhibition result on Procathepsin L [14] and on Cathepsin B [5] was “inactive” each time.

As for `CCCS[S+]([O-])CCC` (stereo unspecified), the inhibition constant Ki at Cathepsin B [6] was 15.6 µM; at Procathepsin L [2], 11.3 µM; at Rhodesain, 4.44 µM; in [9], 26.4 µM. The half-maximal inhibitory concentration (IC50) in test [1] is above 40 µM; in the test on Plasmodium falciparum [3] it was 78.3 µM. Moreover, the TDI in test [12] turned out to be 7150 min⁻¹ M⁻¹; at Procathepsin L [15], 6660 min⁻¹ M⁻¹; in the test on Plasmodium falciparum [13], 10800 min⁻¹ M⁻¹.

For `CC(C)CCS[S+]([O-])CCC(C)C` (stereo unspecified), the Ki at Cathepsin B [6] is 18.9 µM; at Procathepsin L [2], 3.4 µM; on Rhodesain, 0.36 µM; in test [9] it was 3.04 µM. The same compound showed an IC50 in the test with Plasmodium falciparum [3] of 54.7 µM.

For `CCCCCCS[S+]([O-])CCCCCC` (stereo unspecified), the inhibition constant Ki at Cathepsin B [6] turned out to be 5.94 µM; at Procathepsin L [2], 10.4 µM; at Rhodesain, 1 µM; in [9] it was 1.8 µM. Moreover, the IC50 in test [1] came to 3.08 µM; with Plasmodium falciparum [3], 10.9 µM. The TDI worked out at 83500 min⁻¹ M⁻¹ in test [12] and 44100 min⁻¹ M⁻¹ with Plasmodium falciparum [13].
